Source: patent publication US8546608B2, “Proteasome inhibitors and methods of using the same” (Cephalon, Inc., priority 2003, dated 2013)

Assays:
[1] = biological target: T1, 20S Human Erythrocyte Proteasome (HEP) (Homo sapiens, UniProt P20618+P28074); experiment: Chymotrypsin-like activity of 20S Human Erythrocyte Proteasome (HEP), IC50 determination; format: biochemical; conditions: assay of Example C, inhibition of HEP
T1 construct: 20S Human Erythrocyte Proteasome (HEP), purchased from Immatics Biotechnologies Inc; purchased Immatics Biotechnologies Inc., Tübingen, Germany; host or cells: human erythrocytes (natural source)
Summary of the method: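 20S proteasome at 0.2 μg/mL (about 0.6 nM catalytic sites) in 20 mM Tris with 0.04% SDS, preincubated 15 min at 37° C with inhibitor before Suc-LLVY-AMC (100 μM final). AMC fluorescence read in the linear range; triplicates, IC50 from concentration series.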

[2] = biological target: T2, proteasome in Molt-4 cells (human leukemia) (Homo sapiens, UniProt P20618+P28074); format: cell-based; conditions: assay of Example E, inhibition of MOLT4; read-out: MOLT4 (EC50)
T2 sequence (P28074 60-263): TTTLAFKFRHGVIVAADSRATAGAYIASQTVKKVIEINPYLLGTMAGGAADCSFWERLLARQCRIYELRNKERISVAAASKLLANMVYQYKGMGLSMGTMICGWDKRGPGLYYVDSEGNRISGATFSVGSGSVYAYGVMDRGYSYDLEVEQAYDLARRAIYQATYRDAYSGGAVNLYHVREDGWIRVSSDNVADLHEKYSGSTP
T2 sequence (P20618 29-241): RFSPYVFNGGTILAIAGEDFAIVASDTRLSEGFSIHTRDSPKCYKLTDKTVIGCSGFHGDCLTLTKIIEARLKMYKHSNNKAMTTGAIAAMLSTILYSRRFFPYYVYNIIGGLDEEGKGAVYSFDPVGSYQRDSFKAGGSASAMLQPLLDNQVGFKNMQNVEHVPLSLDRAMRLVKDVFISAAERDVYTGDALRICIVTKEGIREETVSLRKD
Summary of the method: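 Intact Molt-4 cells (6×10^6 cells/mL) in HEPES-buffered saline were preincubated with inhibitor 15 min at 37 °C, then given cell-permeable MeOSuc-FLF-AFC at 25 μM final.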

| SMILES | IC50 [1] | EC50 [2] |
| --- | --- | --- |
| CC(C)C[C@H](NC(=O)[C@H](CCCNC(=N)N[N+](=O)[O-])NC(=O)c1cccc(F)c1F)B(O)O [E.2.11, Boronic acid, [(1R)-1-[[(2S)-5-[[imino(nitroamino)methyl]amino]-2-[(2,3-difluorobenzoyl)amino]-1-oxopentyl]amino]-3-methylbutyl]] | < 0.01 µM | > 10 µM |
| CCCCCCCCCCCC(=O)N[C@@H](CCCNC(=N)N[N+](=O)[O-])C(=O)N[C@@H](CC(C)C)B(O)O [E.2.12, Boronic acid, [(1R)-1-[[(2S)-5-[[imino(nitroamino)methyl]amino]-2-[(dodecanoyl)amino]-1-oxopentyl]amino]-3-methylbutyl]] | < 0.01 µM | < 0.2 µM |
| CC(C)C[C@H](NC(=O)[C@H](CCCNC(=N)N[N+](=O)[O-])NC(=O)Cc1ccccc1I)B(O)O [E.2.13, Boronic acid, [(1R)-1-[[(2S)-5-[[imino(nitroamino)methyl]amino]-2-[[2-(2-iodophenyl)acetyl]amino]-1-oxopentyl]amino]-3-methylbutyl]] | < 0.01 µM | 2 to 10 µM |
| CC(C)C[C@H](NC(=O)[C@H](CCCNC(=N)N[N+](=O)[O-])NC(=O)C1CCCCC1)B(O)O [E.2.14, Boronic acid, [(1R)-1-[[(2S)-5-[[imino(nitroamino)methyl]amino]-2-[(cyclohexanecarbonyl)amino]-1-oxopentyl]amino]-3-methylbutyl]] | < 0.01 µM | > 10 µM |
| Cc1ccccc1C(=O)N[C@@H](CCCNC(=N)N[N+](=O)[O-])C(=O)N[C@@H](CC(C)C)B(O)O [E.2.15, Boronic acid, [(1R)-1-[[(2S)-5-[[imino(nitroamino)methyl]amino]-2-[(2-methylbenzoyl)amino]-1-oxopentyl]amino]-3-methylbutyl]] | < 0.01 µM | > 10 µM |
| CC(C)C[C@H](NC(=O)[C@H](CCCNC(=N)N[N+](=O)[O-])NC(=O)[C@@H](C)c1ccccc1)B(O)O [E.2.16, Boronic acid, [(1R)-1-[[(2S)-5-[[imino(nitroamino)methyl]amino]-2-[((2S)-2-phenylpropanoyl)amino]-1-oxopentyl]amino]-3-methylbutyl]] | < 0.01 µM | > 10 µM |
| CC(C)C[C@H](NC(=O)[C@H](CCCNC(=N)N[N+](=O)[O-])NC(=O)c1ccc2ccccc2n1)B(O)O [E.2.18, Boronic acid, [(1R)-1-[[(2S)-5-[[imino(nitroamino)methyl]amino]-2-[(quinoline-2-carbonyl)amino]-1-oxopentyl]amino]-3-methylbutyl]] | < 0.01 µM | 2 to 10 µM |
| CCCCCC/C=C/C(=O)N[C@@H](CCCNC(=N)N[N+](=O)[O-])C(=O)N[C@@H](CC(C)C)B(O)O [E.2.19, Boronic acid, [(1R)-1-[[(2S)-5-[[imino(nitroamino)methyl]amino]-2-[(non-2-enoyl)amino]-1-oxopentyl]amino]-3-methylbutyl]] | < 0.01 µM | 2 to 10 µM |
| CC(C)C[C@H](NC(=O)[C@H](CCCNC(=N)N[N+](=O)[O-])NC(=O)C1CCCCC1C)B(O)O (stereo partly drawn) [E.2.20, Boronic acid, [(1R)-1-[[(2S)-5-[[imino(nitroamino)methyl]amino]-2-[(2-methylcyclohexanecarbonyl)amino]-1-oxopentyl]amino]-3-methylbutyl]] | < 0.01 µM | 2 to 10 µM |
| CCCC/C=C/C(=O)N[C@@H](CCCNC(=N)N[N+](=O)[O-])C(=O)N[C@@H](CC(C)C)B(O)O [E.2.21, Boronic acid, [(1R)-1-[[(2S)-5-[[imino(nitroamino)methyl]amino]-2-[(hept-2-enoyl)amino]-1-oxopentyl]amino]-3-methylbutyl]] | < 0.01 µM | 2 to 10 µM |
| Cc1ccc(OCC(=O)N[C@@H](CCCNC(=N)N[N+](=O)[O-])C(=O)N[C@@H](CC(C)C)B(O)O)cc1C [E.2.22, Boronic acid, [(1R)-1-[[(2S)-5-[[imino(nitroamino)methyl]amino]-2-[[2-(3,4-dimethylphenoxy)acetyl]amino]-1-oxopentyl]amino]-3-methylbutyl]] | < 0.01 µM | 0.2 to 2 µM |
| CC(C)C[C@H](NC(=O)[C@H](CCCNC(=N)N[N+](=O)[O-])NC(=O)C1CC2CCC1C2)B(O)O (stereo partly drawn) [E.2.25, Boronic acid, [(1R)-1-[[(2S)-5-[[imino(nitroamino)methyl]amino]-2-[(bicyclo[2.2.1]heptane-2-carbonyl)amino]-1-oxopentyl]amino]-3-methylbutyl]] | < 0.01 µM | 2 to 10 µM |
| CC(C)CCCC(=O)N[C@@H](CCCNC(=N)N[N+](=O)[O-])C(=O)N[C@@H](CC(C)C)B(O)O [E.2.26, Boronic acid, [(1R)-1-[[(2S)-5-[[imino(nitroamino)methyl]amino]-2-[(5-methylhexanoyl)amino]-1-oxopentyl]amino]-3-methylbutyl]] | < 0.01 µM | > 10 µM |
| Cc1nc(C)c(C(=O)N[C@@H](CCCNC(=N)N[N+](=O)[O-])C(=O)N[C@@H](CC(C)C)B(O)O)s1 [E.2.27, Boronic acid, [(1R)-1-[[(2S)-5-[[imino(nitroamino)methyl]amino]-2-[(2,4-dimethylthiazole-5-carbonyl)amino]-1-oxopentyl]amino]-3-methylbutyl]] | < 0.01 µM | > 10 µM |
| CC(C)C[C@H](NC(=O)[C@H](CCCNC(=N)N[N+](=O)[O-])NC(=O)c1ccoc1)B(O)O [E.2.28, Boronic acid, [(1R)-1-[[(2S)-5-[[imino(nitroamino)methyl]amino]-2-[(furan-3-carbonyl)amino]-1-oxopentyl]amino]-3-methylbutyl]] | < 0.01 µM | > 10 µM |
| CC(C)C[C@H](NC(=O)[C@H](CCCNC(=N)N[N+](=O)[O-])NC(=O)CC1CCCCCC1)B(O)O [E.2.29, Boronic acid, [(1R)-1-[[(2S)-5-[[imino(nitroamino)methyl]amino]-2-[(2-cycloheptylacetyl)amino]-1-oxopentyl]amino]-3-methylbutyl]] | < 0.01 µM | 2 to 10 µM |
| CC(C)CC(=O)N[C@@H](CCCNC(=N)N[N+](=O)[O-])C(=O)N[C@@H](CC(C)C)B(O)O [E.2.31, Boronic acid, [(1R)-1-[[(2S)-5-[[imino(nitroamino)methyl]amino]-2-[(3-methylbutanoyl)amino]-1-oxopentyl]amino]-3-methylbutyl]] | < 0.01 µM | > 10 µM |
| CC(C)C[C@H](NC(=O)[C@H](CCCNC(=N)N[N+](=O)[O-])NC(=O)CCc1ccccc1)B(O)O [E.2.32, Boronic acid, [(1R)-1-[[(2S)-5-[[imino(nitroamino)methyl]amino]-2-[(3-phenylpropanoyl)amino]-1-oxopentyl]amino]-3-methylbutyl]] | < 0.01 µM | > 10 µM |
| Cc1cccc(/C=C/C(=O)N[C@@H](CCCNC(=N)N[N+](=O)[O-])C(=O)N[C@@H](CC(C)C)B(O)O)c1 [E.2.33, Boronic acid, [(1R)-1-[[(2S)-5-[[imino(nitroamino)methyl]amino]-2-[[(E)-3-(3-methylphenyl)acryl]amino]-1-oxopentyl]amino]-3-methylbutyl]] | < 0.01 µM | 2 to 10 µM |
| CC(C)C[C@H](NC(=O)[C@H](CCCNC(=N)N[N+](=O)[O-])NC(=O)CC12CC3CC(CC(C3)C1)C2)B(O)O [E.2.34] | < 0.01 µM | 2 to 10 µM |
| CC(C)C[C@H](NC(=O)[C@H](CCCNC(=N)N[N+](=O)[O-])NC(=O)Cc1ccccc1)B(O)O [E.2.36, Boronic acid, [(1R)-1-[[(2S)-5-[[imino(nitroamino)methyl]amino]-2-[(2-phenylacetyl)amino]-1-oxopentyl]amino]-3-methylbutyl]] | < 0.01 µM | > 10 µM |
| COc1ccc(CC(=O)N[C@@H](CCCNC(=N)N[N+](=O)[O-])C(=O)N[C@@H](CC(C)C)B(O)O)cc1 [E.2.37, Boronic acid, [(1R)-1-[[(2S)-5-[[imino(nitroamino)methyl]amino]-2-[[2-(4-methoxyphenyl)acetyl]amino]-1-oxopentyl]amino]-3-methylbutyl]] | < 0.01 µM | > 10 µM |
| CC(C)C[C@H](NC(=O)[C@H](CCCNC(=N)N[N+](=O)[O-])NC(=O)Cc1ccc(Br)cc1)B(O)O [E.2.38, Boronic acid, [(1R)-1-[[(2S)-5-[[imino(nitroamino)methyl]amino]-2-[[2-(4-bromophenyl)acetyl]amino]-1-oxopentyl]amino]-3-methylbutyl]] | < 0.01 µM | 2 to 10 µM |
| Cc1ccc(F)c(C(=O)N[C@@H](CCCNC(=N)N[N+](=O)[O-])C(=O)N[C@@H](CC(C)C)B(O)O)c1 [E.2.40, Boronic acid, [(1R)-1-[[(2S)-5-[[imino(nitroamino)methyl]amino]-2-[(2-fluoro-5-methylbenzoyl)amino]-1-oxopentyl]amino]-3-methylbutyl]] | < 0.01 µM | 2 to 10 µM |
